Results as given in patent publication US8163693B2, “Urea-containing peptides as inhibitors of viral replication” (Achillion Pharmaceuticals, Inc., priority 2007, dated 2012).

The compounds below were run on Hepatitis C replicon in Huh-7 cells (assay: HCV replicon assay (inhibition of HCV replicon replication, NPT ELISA readout)). Conditions: Hepatitis C virus, 72 h; Huh-7 HCV replicon-containing cells, three days incubation; read-out: Activity (EC50 class in an HCV replicon assay).
Assay type: cell-based
Procedure: Compounds claimed herein are tested for the ability to inhibit viral replication of the Hepatitis C replicon in cultured cells in which the HCV replicon construct has been incorporated. The HCV replicon system was described by Bartenschlager, et. al (Science, 285, pp. 110-113 (1999)). The replicon system is predictive of in vivo anti-HCV activity; compounds that are active in humans uniformly evidence activity in the replicon assay.
In this assay HCV replicon containing cells are treated with different concentrations of the test compound to ascertain the ability of the test compound to suppress replication of the HCV replicon. As a positive control, HCV replicon-containing cells are treated with different concentrations of interferon alpha, a known inhibitor of HCV replication. The replicon assay system includes Neomycin Phosphotransferase (NPT) as a component of the replicon itself in order to detect the transcription of replicon gene products in the host cell. Cells in which the HCV replicon is actively replicating have high levels of NPT; the level of NPT is proportional to HCV replication. […] The NPT level of each sample is measured using a captured ELISA.
A protocol for testing compounds for the ability to inhibit viral replication of the Hepatitis C replicon cultured cells in which the replicon construct has been incorporated, follows.
The HCV replicon contains, 5′-3′, the HCV-IRES, the neomycin phosphotransferase (neo) gene, the IRES of encephalomyocarditis virus, which directs translation of HCV sequences NS3 to NS5B, and the 3′-NTR. The sequence of the HCV replicon has been deposited in GenBank (Accession no. AJ242652).
The replicon is transfected into Huh-7 cells using standard methods such as electroporation.
The equipment and materials include, but are not limited to, Huh-7 HCV replicon-containing cells, maintenance media (DMEM (Dulbecco's modified Eagle media) supplemented with 10% FBS, L-glutamine, non-essential amino acids, penicillin (100 units/ml), streptomycin (100 micrograms/ml), and 500 micrograms/ml of Geneticin (G418), screening media (DMEM supplemented with 10% FBS, L-glutamine, non-essential amino acids, penicillin (100 units/ml) and streptomycin (100 micrograms/ml)), 96 well tissue culture plates (flat bottom), 96 well plates (U bottom for drug dilution), Interferon alpha for positive control, fixation reagent (such as methanol: acetone), primary antibody (rabbit anti-NPTII), secondary antibody: Eu-N1 1, and enhancement solution.
The cells are then seeded onto 96-well plates at a density of 6000-7500 cells/100 microliters/ well (6-7.5×10^5 cells/10 ml/plate). The plates are then incubated at 37° C. in a 5% CO2 incubator.
HCV replicon-containing cells are rinsed with once PBS once; 2 mls of trypsin are then added. Cells are incubated at 37° C. in a 5% CO2 incubator for 3-5 minutes. 10 mls of complete medium is added to stop the reaction. Cells are blown gently, put into a 15 ml tube, and spun at 1200 rpm for four minutes. The trypsin/medium solution is removed and 5 mls of medium (500 ml DMEM (high glucose)) from BRL catalog #12430-054; 50 mls 10% FBS, 5% Geneticin G418 (50 mg/ml, BRL catalog #10131-035), 5 ml MEM non-essential amino acids (100× BRL #11140-050) and 5 ml pen-strep (BRL #15140-148) is added. The cells and media are mixed carefully
Cells are plated with screening medium (500 ml DMEM (BRL #21063-029), 50 ml FBS (BRL #10082-147) and 5 ml MEM non-essential amino acid (BRL #11140-050) at 6000-7500 fcells/100 μl/well of 96 well plate (6-7.5×10^5 cells/10 ml/plate). Plates are placed into 37° C. 5% CO2 incubator overnight.
The following morning, drugs (test compounds or interferon alpha) are diluted in 96 well U bottom plates with media or DMSO/media, depending on the final concentration chosen for screening. Generally for 6 concentrations of each test compounds ranging from 10 micromolar to 0.03 micromolar are applied. […]
`CCCC(NC(=O)N1C[C@@H](Oc2cc(-c3ccccc3)nc3cc(OC)ccc23)C[C@H]1C(=O)N[C@H](C(=O)N[C@H](C(=O)OC)C1CCCCC1)C(C)(C)C)C(=O)C(=O)NC1CC1` (some centres unmarked) [Compound 41] gave an EC50 of under 10 µM. `C=CC1CC1(NC(=O)N1C[C@@H](Oc2cc(-c3ccccc3)nc3cc(OC)ccc23)C[C@H]1C(=O)NC(C(=O)N[C@H](C(=O)NC)C1CCCCC1)C(C)(C)C)C(=O)O` (some centres unmarked) [Compound 42] showed an EC50 of over 100 µM. `CCCC(NC(=O)N1C[C@@H](OC(=O)N2CCc3ccccc3C2)C[C@H]1C(=O)N[C@H](C(=O)OC(C)(C)C)C(C)(C)C)C(=O)C(=O)NC1CC1` (some centres unmarked) [Compound 43] gave an EC50 of 10 to 100 µM. `CCCC(NC(=O)N1C[C@@H](OC(=O)N2CCCCC2)C[C@H]1C(=O)N[C@H](C(=O)OC(C)(C)C)C(C)(C)C)C(=O)C(=O)NC1CC1` (some centres unmarked) [Compound 44] gave an EC50 of under 10 µM. `C=CC1CC1(NC(=O)N1C[C@@H](OC(=O)N2CCCCC2)C[C@H]1C(=O)N[C@H](C(=O)OC(C)(C)C)C(C)(C)C)C(=O)OCC` (some centres unmarked) [Compound 45] gave an EC50 of under 10 µM. For `C=CC1CC1(NC(=O)N1C[C@@H](OC(=O)N2CCCCC2)C[C@H]1C(=O)N[C@H](C(=O)OC(C)(C)C)C(C)(C)C)C(=O)O` (some centres unmarked) [Compound 46], the EC50 was 10 to 100 µM. With `C=CC1CC1(NC(=O)N1C[C@@H](OC(=O)N2CCCCC2)C[C@H]1C(=O)N[C@H](C(=O)OC(C)(C)C)C(C)(C)C)C(=O)NS(=O)(=O)C1CC1` (some centres unmarked) [Compound 47] the EC50 was under 10 µM. Compound `C=CC1CC1(NC(=O)N1C[C@@H](Oc2cc(-c3ccccc3)nc3cc(OC)ccc23)C[C@H]1C(=O)N[C@H](C(=O)N[C@H](C(=O)NC)C1CCCCC1)C(C)(C)C)C(=O)NS(=O)(=O)C1CC1` (some centres unmarked) [Compound 48] has an EC50 of under 10 µM.

Same assay, conditions: Hepatitis C virus, 72 h; Huh-7 HCV replicon-containing cells, three days incubation; read-out: EC50 in HCV replicon assay
Compound `CCCC(NC(=O)N1C[C@@H](OC(=O)N2CCc3ccccc3C2)C[C@H]1C(=O)N[C@H](C(=O)N[C@H](C(=O)OC)C1CCCCC1)C(C)(C)C)C(=O)C(=O)NC1CC1` (stereo partly drawn) [Compound 11, (3S,5S)-5-((S)-1-((S)-1-Cyclohexyl-2-Methoxy-2-Oxoethylamino)-3,3-Dimethyl-1-Oxobutan-2-Ylcarbamoyl)-1-(1-(Cyclopropylamino)-1,2-Dioxohexan-3-Ylcarbamoyl)Pyrrolidin-3-yl 3,4-Dihydroisoquinoline-2(1H)-Carboxylate] has an EC50 of at most 10 µM. `CCCC(NC(=O)N1C[C@@H](OC(=O)N2CCc3ccccc3C2)C[C@H]1C(=O)N[C@H](C(=O)N[C@H](C(=O)NC)C1CCCCC1)C(C)(C)C)C(=O)C(=O)NC1CC1` (stereo partly drawn) [Compound 16, (3S,5S)-5-((S)-1-((S)-1-Cyclohexyl-2-(Methylamino)-2-Oxoethylamino)-3,3-Dimethyl-1-Oxobutan-2-Ylcarbamoyl)-1-(1-(Cyclopropylamino)-1,2-Dioxohexan-3-Ylcarbamoyl)Pyrrolidin-3-Yl 3,4Dihydroisoquinoline-2(1H)-Carboxylate] was tested, and the EC50 was under 50 µM. With `C=CC1CC1(NC(=O)N1C[C@@H](OC(=O)N2CCc3ccccc3C2)C[C@H]1C(=O)N[C@H](C(=O)N[C@H](C(=O)NC)C1CCCCC1)C(C)(C)C)C(=O)O` (stereo partly drawn) [Compound 33, 1-((2S,4S)-2-((S)-1-((S)-1-Cyclohexyl-2-(Methylamino)-2-Oxoethylamino)-3,3-Dimethyl-1-Oxobutan-2-Ylcarbamoyl)-4-(1,2,3,4-Tetrahydroisoquinoline-2-Carbonyloxy)Pyrrolidine-1-Carboxamido)-2-Vinylcyclopropanecarboxylic Acid] the EC50 was under 50 µM. `C=CC1CC1(NC(=O)N1C[C@@H](OC(=O)N2CCc3ccccc3C2)C[C@@H]1C(=O)N[C@H](C(=O)N[C@H](C(=O)NC)C(CC)CC)C(C)(C)C)C(=O)O` (stereo partly drawn) [Compound 38, 1-((2R,4S)-2-((S)-1-((S)-3-Ethyl-1-(Methylamino)-1-Oxopentan-2-Ylamino)-3,3-Dimethyl-1-Oxobutan-2-Ylcarbamoyl)-4-(1,2,3,4-Tetrahydroisoquinoline-2-Carbonyloxy)Pyrrolidine-1-Carboxamido)-2-Vinylcyclopropanecarboxylic Acid] gave an EC50 of under 50 µM. Work on `CNC(=O)[C@@H](NC(=O)[C@@H]1CCCCC/C=C\CC(C(=O)C(=O)NC2CC2)NC(=O)N2C[C@@H](OC(=O)N3CCc4ccccc4C3)C[C@@H]2C(=O)N1)C1CCCCC1` (some centres unmarked) [Compound 39] yielded an EC50 of at most 10 µM. `CNC(=O)[C@@H](NC(=O)[C@@H]1CCCCC/C=C\C2CC2(C(=O)O)NC(=O)N2C[C@@H](OC(=O)N3CCc4ccccc4C3)C[C@@H]2C(=O)N1)C1CCCCC1` (some centres unmarked) [Compound 40] gave an EC50 of at most 10 µM.
